From US4628047A (priority 1982, dated 1986)
Values after ≈ are worked out from the molar mass of the structure shown. Where a name gives a salt, the structure may show the parent alone. Read-outs that look alike come from different tables or passages of the source.

Key:
[1] = system: ADM-resistant P388 leukemia cells; assay: Antitumor enhancement effect in mice inoculated with ADM-resistant P388 leukemia cells; format: in vivo, CDF1 female mice; conditions: diltiazem HCl 125 mg/kg alone, i.p., 10 days
[2] = system: VCR-resistant P388 leukemia cells; assay: Antitumor enhancement effects in mice inoculated with VCR-resistant P388 leukemia cells; format: in vivo, CDF1 female mice; conditions: i.p., 10 days
P388 leukemia cells = assay: Growth inhibition of non-resistant P388 leukemia cells; format: cell-based; conditions: for IC50: Mus musculus, P388, ADM
P388/ADM = assay: Growth inhibition of ADM-resistant P388 leukemia cells (P388/ADM); format: cell-based; conditions: for IC50: Mus musculus
[3] = diltiazem hydrochloride 180 mg per day, 4 days, in addition to vincristine 1 mg/week
[4] = VCR 30 μg/kg + diltiazem HCl 60 mg/kg
[5] = VCR 30 μg/kg + diltiazem HCl 80 mg/kg
[6] = VCR 30 μg/kg + diltiazem HCl 100 mg/kg
[7] = VCR 30 μg/kg + diltiazem HCl 125 mg/kg
[8] = VCR 100 μg/kg + diltiazem HCl 60 mg/kg
[9] = VCR 100 μg/kg + diltiazem HCl 80 mg/kg
[10] = VCR 100 μg/kg + diltiazem HCl 100 mg/kg
[11] = VCR 100 μg/kg + diltiazem HCl 125 mg/kg
[12] = VCR 200 μg/kg + diltiazem HCl 60 mg/kg
[13] = VCR 200 μg/kg + diltiazem HCl 80 mg/kg
[14] = VCR 200 μg/kg + diltiazem HCl 100 mg/kg
[15] = VCR 200 μg/kg + diltiazem HCl 125 mg/kg

For `COc1ccc([C@@H]2Sc3ccccc3N(CCN(C)C)C(=O)[C@@H]2OC(C)=O)cc1` [Diltiazem HCl], the “both symptoms (leukocytes, splenoma)” value (chronic myeloplast; [3]) was “both symptoms were remarkably improved”, the “duration of the effect” value (chronic myeloplast; [3]) was “about two” and the side effect (chronic myeloplast; human, in vivo) was “no side effect was observed”. The Survival time [1] was 13.0 ± 0 days, the Survival time [2, 4] was 11.8 ± 1.9 days and the T/V [2, 4] was 111%. For the same compound, the Survival time [2, 5] was 13.8 ± 2.3 days, the T/C [2, 5] was 121% and the T/V [2, 5] was 130%. The Survival time [2, 6] was 12.2 ± 1.3 days, the T/V [2, 6] was 115% and the Survival time [2, 7] was 13.6 ± 1.9 days. It also gave a T/C [2, 7] of 119%, a T/V [2, 7] of 125% and a Survival time [2, 8] of 13.8 ± 1.7 days. The T/C [2, 8] was 121%, the T/V [2, 8] was 128% and the T/C [2, 9] was 126%. For the same compound, the T/V [2, 9] was 133%, the T/C [2, 10] was 132% and the T/V [2, 10] was 139%. It also gave a T/C [2, 11] of 132%, a T/V [2, 11] of 139% and a T/C [2, 12] of 130%. It also gave a T/V [2, 12] of 119%, a T/C [2, 13] of 130% and a T/V [2, 13] of 119%. For the same compound, the T/C [2, 14] was 139%, the T/V [2, 14] was 127% and the Survival time [2, 15] was 17.0 ± 1.2 days. For the same compound, the T/C [2, 15] was 149%, the T/V [2, 15] was 137% and the Survival time ([2]; diltiazem HCl 100 mg/kg alone) was 11.8 ± 0.4 days.
`COc1cccc2c1C(=O)c1c(O)c3c(c(O)c1C2=O)C[C@@](O)(C(=O)CO)C[C@@H]3O[C@H]1C[C@H](N)[C@H](O)[C@H](C)O1` [ADM, doxorubicin] showed an IC50 (P388 leukemia cells; diltiazem 0 μM) of 0.01 ± 0.0021 µg/mL (≈ 0.0184 µM), an IC50 (P388 leukemia cells; with diltiazem 10 μM) of 0.0077 ± 0.0036 µg/mL (≈ 0.0142 µM) and an IC50 (P388 leukemia cells; with diltiazem 35 μM) of 0.0069 ± 0.0007 µg/mL (≈ 0.0127 µM). For the same compound, the IC50 (P388 leukemia cells; with diltiazem 100 μM) was 0.006 ± 0.0004 µg/mL (≈ 0.011 µM), the Enhancement effect (P388 leukemia cells; on ADM, diltiazem 0 μM) was 1 and the IC50 (P388/ADM; ADM, diltiazem 0 μM) was 0.592 ± 0.0768 µg/mL (≈ 1.09 µM). For the same compound, the IC50 (P388/ADM; ADM, with diltiazem 10 μM) was 0.133 ± 0.0184 µg/mL (≈ 0.245 µM), the IC50 (P388/ADM; ADM, with diltiazem 35 μM) was 0.0537 ± 0.0031 µg/mL (≈ 0.0988 µM) and the IC50 (P388/ADM; ADM, with diltiazem 100 μM) was 0.0307 ± 0.0041 µg/mL (≈ 0.0565 µM). For the same compound, the IC50 (P388/ADM; read-out: concentration of doxorubicin showing 50% inhibition of the cells, with diltiazem 100 μM) was ~0.03 µg/mL (≈ 0.0552 µM), the IC50 (P388/ADM; read-out: dose for showing 50% inhibition of the tumor cells, doxorubicin alone) was 0.592 µg/mL (≈ 1.09 µM) and the Enhancement effect (P388/ADM; on ADM, diltiazem 0 μM) was 1.
